Measurements published in patent US12459914B2, “Compounds and compositions for the treatment of tumors” (FONDAZIONE ISTITUTO ITALIANO DI TECNOLOGIA, priority 2019, dated 2025).

Legend:
BxPC-3 cells = assay: Cell viability assay (CellTiter Glo); format: cell-based; conditions: Homo sapiens, 72 h
Method: BxPC-3 cells were grown in RPMI 1640 containing 10% FBS, 100 U/ml penicillin/streptomycin, 2 mM glutamine. All media and supplements were from Sigma-Aldrich. Cultures were routinely tested for Mycoplasma contamination. Treatments (Olaparib and BRCA2-Rad51 disruptors) were administered in culture medium supplemented with 0.6% DMSO. The same amount of DMSO was added to the control, untreated cultures.
Cell viability was assessed by CellTiter Glo, Luminescent Cell Viability Assay. Briefly, BxPC-3 cells (1×10^4/well) were plated in white 96-well plates with clear bottom and treated for 72 h with olaparib (10 μM) or with the BRCA2-Rad51 disruptors, given alone or in combination. After treatments, the plate was allowed to equilibrate at room temperature for 30 min and the CellTiter-Glo reactive was directly added to each well. The plate was kept on a shaker for 2 min to induce cell lysis and its luminescence was measured by using a Fluoroskan Ascent FL reader (Labsystems) using manufacturer's instructions.

BRC4/RAD51 interaction = target: T1, BRC4/RAD51 interaction (Homo sapiens, UniProt Q06609); assay: Competitive ELISA assay, disruption of BRC4/RAD51 interaction; format: binding; conditions: human Rad51, biotinylated BRC4 peptide
T1 construct: purchased Creative Biomart (Rad51); Life Technologies (BRC4 peptide)
T1 sequence (Q06609 1-339): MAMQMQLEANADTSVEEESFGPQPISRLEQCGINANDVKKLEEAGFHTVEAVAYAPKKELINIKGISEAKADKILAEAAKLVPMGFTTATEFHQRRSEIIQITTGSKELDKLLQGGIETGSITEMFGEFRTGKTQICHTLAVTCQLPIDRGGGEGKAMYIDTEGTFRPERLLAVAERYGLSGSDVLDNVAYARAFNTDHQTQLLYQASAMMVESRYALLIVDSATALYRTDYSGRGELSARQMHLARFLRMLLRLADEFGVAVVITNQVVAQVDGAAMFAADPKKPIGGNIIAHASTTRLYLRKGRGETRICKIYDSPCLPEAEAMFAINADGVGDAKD
Method: A competitive ELISA screening assay using biotinylated BRC4 peptide to disrupt the BRC4/RAD51 interaction was performed by modifying the method described by Rajendra et al. (Nucleic Acids Res. 38 (2010) 82-96). BRC4-biotinylated peptide (N-term Biotin[…] from Life Technologies) was used to coat 384-well plates (Nunc). After washing with PBS containing 0.05% Tween-20 (PBST), and blocking with the solution BSA 1%/PBST, overnight hybridization with human Rad51 protein (NP_002866 Creative Biomart, NY) was performed. Test compounds were added in dose-response from […] in triplicate with constant DMSO 1%. Antibody raised against Rad51 (Millipore) and HRP-secondary antibody staining to develop the 3,30,5,50-tetramethyllbenzidine signal (Sigma) quenched with 1M HCl was used as the assay readout. Colorimetric measure was read on Victor5 (PerkinElmer) plate Reader. BRC4 and Rad51 were included in the assay as positive control. Results were analyzed using GraphPad Software.

| Structure (SMILES) | EC50 (BxPC-3 cells) [µM] | EC50 (BRC4/RAD51 interaction) [µM] |
| --- | --- | --- |
| Cn1ncc2cc(C3CC(c4c(-c5ccccc5)c5cc(Cl)ccc5[nH]c4=O)=NN3C(=O)CCC(=O)O)ccc21 (centres unmarked) [d.26, 4-[5-(6-chloro-2-oxo-4-phenyl-1H-quinolin-3-yl)-3-(1-methylindazol-5-yl)-3,4-dihydropyrazol-2-yl]-4-oxo-butanoic acid] | > 50 | 13 |
| O=C(O)CCC(=O)N1N=C(c2c(-c3ccccc3)c3cc(Cl)ccc3[nH]c2=O)CC1c1ccco1 (centres unmarked) [d.20, 4-[5-(6-chloro-2-oxo-4-phenyl-1H-quinolin-3-yl)-3-(2-furyl)-3,4-dihydropyrazol-2-yl]-4-oxo-butanoic acid] | > 100 | > 100 |
| O=C(O)CCC(=O)N1N=C(c2c(-c3ccccc3)c3cc(Cl)ccc3[nH]c2=O)CC1c1ccc(F)cc1 (centres unmarked) [d.1, 4-[5-(6-chloro-2-oxo-4-phenyl-1H-quinolin-3-yl)-3-(4-fluorophenyl)-3,4-dihydropyrazol-2-yl]-4-oxo-butanoic acid] | > 50 | 38 |
| CCCn1cc2cc(C3CC(c4c(-c5ccccc5)c5cc(Cl)ccc5[nH]c4=O)=NN3C(=O)CCC(=O)O)ccc2n1 (centres unmarked) [d.35, 4-[5-(6-chloro-2-oxo-4-phenyl-1H-quinolin-3-yl)-3-(2-propylindazol-5-yl)-3,4-dihydropyrazol-2-yl]-4-oxo-butanoic acid] | 62.6 | > 100 |
| O=C(O)CCC(=O)N1N=C(c2c(-c3ccccc3)c3cc(Cl)ccc3[nH]c2=O)CC1c1ccc(C(F)(F)F)cc1 (centres unmarked) [d.14, 4-[5-(6-chloro-2-oxo-4-phenyl-1H-quinolin-3-yl)-3-[4-(trifluoromethyl)phenyl]-3,4-dihydropyrazol-2-yl]-4-oxo-butanoic acid] | 50 | 29 |
| O=C(O)CCC(=O)N1N=C(c2c(-c3ccccc3)c3cc(Cl)ccc3[nH]c2=O)CC1c1ccc(-c2ccc(Cl)cc2)cc1 (centres unmarked) [d.37, 4-[5-(6-chloro-2-oxo-4-phenyl-1H-quinolin-3-yl)-3-[4-(4-chlorophenyl)phenyl]-3,4-dihydropyrazol-2-yl]-4-oxo-butanoic acid] | 41.5 | 25 |
| COc1ccc(C2CC(c3c(-c4ccccc4)c4cc(Cl)ccc4[nH]c3=O)=NN2C(=O)CCC(=O)O)cc1 (centres unmarked) [d.11, 4-[5-(6-chloro-2-oxo-4-phenyl-1H-quinolin-3-yl)-3-(4-methoxyphenyl)-3,4-dihydropyrazol-2-yl]-4-oxo-butanoic acid] | > 50 | > 100 |
| CCn1cc2cc(-c3ccc(C4CC(c5c(Cc6ccccc6)c6cc(Cl)ccc6[nH]c5=O)=NN4C(=O)CCC(=O)O)cc3)ccc2n1 (centres unmarked) [d.93, 4-[5-(4-benzyl-6-chloro-2-oxo-1H-quinolin-3-yl)-3-[4-(2-ethylindazol-5-yl)phenyl]-3,4-dihydropyrazol-2-yl]-4-oxo-butanoic acid] | 56.6 | 53 |
| CCn1cc2cc(C3CC(c4c(-c5ccccc5)c5cc(Cl)ccc5[nH]c4=O)=NN3C(=O)CCC(=O)O)ccc2n1 (centres unmarked) [d.29, 4-[5-(6-chloro-2-oxo-4-phenyl-1H-quinolin-3-yl)-3-(2-ethylindazol-5-yl)-3,4-dihydropyrazol-2-yl]-4-oxo-butanoic acid] | > 50 | 28 |
| CC(=O)N1N=C(c2c(-c3ccccc3)c3cc(Cl)ccc3[nH]c2=O)CC1c1ccccc1 (centres unmarked) [d.47, 3-(2-acetyl-3-phenyl-3,4-dihydropyrazol-5-yl)-6-chloro-4-phenyl-1H-quinolin-2-one] | 29.7 | 19 |
| CCn1ccc2cc(C3CC(c4c(-c5ccccc5)c5cc(Cl)ccc5[nH]c4=O)=NN3C(=O)CCC(=O)O)ccc21 (centres unmarked) [d.24, 4-[5-(6-chloro-2-oxo-4-phenyl-1H-quinolin-3-yl)-3-(1-ethylindol-5-yl)-3,4-dihydropyrazol-2-yl]-4-oxo-butanoic acid] | > 40 | 10 |
| COc1ccc(-c2c(C3=NN(C(=O)CCC(=O)O)C(c4ccc(F)cc4)C3)c(=O)[nH]c3ccc(Cl)cc23)cc1 (centres unmarked) [d.19, 4-[5-[6-chloro-4-(4-methoxyphenyl)-2-oxo-1H-quinolin-3-yl]-3-(4-fluorophenyl)-3,4-dihydropyrazol-2-yl]-4-oxo-butanoic acid] | 76 | > 100 |
| CCn1ncc2cc(C3CC(c4c(-c5ccccc5)c5cc(Cl)ccc5[nH]c4=O)=NN3C(=O)CCC(=O)O)ccc21 (centres unmarked) [d.31, 4-[5-(6-chloro-2-oxo-4-phenyl-1H-quinolin-3-yl)-3-(1-ethylindazol-5-yl)-3,4-dihydropyrazol-2-yl]-4-oxo-butanoic acid] | > 50 | > 100 |
| CC(=O)N1N=C(c2c(-c3ccccc3)c3cc(Cl)ccc3[nH]c2=O)CC1c1ccncc1 (centres unmarked) [d.97, 3-(1-acetyl-5-(pyridin-4-yl)-4,5-dihydro-1H-pyrazol-3-yl)-6-chloro-4-phenylquinolin-2 (1H)-one] | 24.3 | 60 |
| Cn1cc2cc(C3CC(c4c(-c5ccccc5)c5cc(Cl)ccc5[nH]c4=O)=NN3C(=O)CCC(=O)O)ccc2n1 (centres unmarked) [d.28, 4-[5-(6-chloro-2-oxo-4-phenyl-1H-quinolin-3-yl)-3-(2-methylindazol-5-yl)-3,4-dihydropyrazol-2-yl]-4-oxo-butanoic acid] | > 100 | > 100 |
| O=C(O)CCC(=O)N1N=C(c2c(-c3ccccc3)c3cc(Cl)ccc3[nH]c2=O)CC1c1ccc(-c2ccc(F)cc2)cc1 (centres unmarked) [d.36, 4-[5-(6-chloro-2-oxo-4-phenyl-1H-quinolin-3-yl)-3-[4-(4-fluorophenyl)phenyl]-3,4-dihydropyrazol-2-yl]-4-oxo-butanoic acid] | 31 | 13 |
| CC(C)(C)c1ccc(C2CC(c3c(-c4ccccc4)c4cc(Cl)ccc4[nH]c3=O)=NN2C(=O)CCC(=O)O)cc1 (centres unmarked) [d.16, 4-[3-(4-tert-butylphenyl)-5-(6-chloro-2-oxo-4-phenyl-1H-quinolin-3-yl)-3,4-dihydropyrazol-2-yl]-4-oxo-butanoic acid] | 71.2 | > 100 |

Stronger by EC50 (BxPC-3 cells), values ahead:

| EC50 (BxPC-3 cells) [µM] | EC50 (BRC4/RAD51 interaction) [µM] | Structure (SMILES) |
| --- | --- | --- |
| 11.4 | > 100 | CC(=O)N1N=C(c2c(-c3ccccc3)c3cc(Cl)ccc3[nH]c2=O)CC1c1ccc(C(F)(F)F)cc1 (centres unmarked) [d.15, 3-[2-acetyl-3-[4-(trifluoromethyl)phenyl]-3,4-dihydropyrazol-5-yl]-6-chloro-4-phenyl-1H-quinolin-2-one] |
| 16.8 | > 100 | CCn1cc2cc(C3CC(c4c(-c5ccccc5)c5cc(Cl)ccc5[nH]c4=O)=NN3C(C)=O)ccc2n1 (centres unmarked) [d.30, 3-[2-acetyl-3-(2-ethylindazol-5-yl)-3,4-dihydropyrazol-5-yl]-6-chloro-4-phenyl-1H-quinolin-2-one] |
| 15 | 15 | CC(=O)N1N=C(c2c(-c3ccccc3)c3cc(Cl)ccc3[nH]c2=O)CC1c1ccc(C(C)(C)C)cc1 (centres unmarked) [d.17, 3-[2-acetyl-3-(4-tert-butylphenyl)-3,4-dihydropyrazol-5-yl]-6-chloro-4-phenyl-1H-quinolin-2-one] |
| 7.6 | > 100 | NCCC(=O)N1N=C(c2c(-c3ccccc3)c3cc(Cl)ccc3[nH]c2=O)CC1c1ccc(F)cc1 (centres unmarked) [d.4, 3-[2-(3-aminopropanoyl)-3-(4-fluorophenyl)-3,4-dihydropyrazol-5-yl]-6-chloro-4-phenyl-1H-quinolin-2-one] |
| 4.8 | 18 | CC(=O)N1N=C(c2c(-c3ccccc3)c3cc(Cl)ccc3[nH]c2=O)CC1c1ccc2c(ccn2C)c1 (centres unmarked) [d.23, 3-[2-acetyl-3-(1-methylindol-5-yl)-3,4-dihydropyrazol-5-yl]-6-chloro-4-phenyl-1H-quinolin-2-one] |
| 18.8 | 45 | CC(=O)N1N=C(c2c(-c3ccccc3)c3cc(Cl)ccc3[nH]c2=O)CC1c1ccc(-c2ccc(Cl)cc2)cc1 (centres unmarked) [d.38, 3-[2-acetyl-3-[4-(4-chlorophenyl)phenyl]-3,4-dihydropyrazol-5-yl]-6-chloro-4-phenyl-1H-quinolin-2-one] |
| 18 | 38 | CC(=O)N1N=C(c2c(-c3ccccc3)c3cc(Cl)ccc3[nH]c2=O)CC1c1ccc(Br)cc1 (centres unmarked) [d.9, 3-[2-acetyl-3-(4-bromophenyl)-3,4-dihydropyrazol-5-yl]-6-chloro-4-phenyl-1H-quinolin-2-one] |
| 23.2 | 70 | O=C(O)CCC(=O)N1N=C(c2c(Cc3ccccc3)c3cc(Cl)ccc3[nH]c2=O)CC1c1ccc(Cl)cc1 (centres unmarked) [d.55, 4-[5-(4-benzyl-6-chloro-2-oxo-1H-quinolin-3-yl)-3-(4-chlorophenyl)-3,4-dihydropyrazol-2-yl]-4-oxo-butanoic acid] |
